{"source": "the supplement of paper PMC8837787", "data": [{"system": "Saccharomyces cerevisiae ABC16-Green Monster", "assay": "growth inhibition at single dose (up to 150 µM), below the 70% cut-off for dose-response; higher = more potent", "details": "18 h; 30 °C; YPD", "method_in_brief": "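The entry is percent growth inhibition of drug-sensitive S. cerevisiae ABC16-Green Monster cells. After overnight growth in YPD at 30 °C, cells were diluted to OD600 0.1–0.2 and exposed to each library compound at 150 µM in 200 µl per well, in biological duplicates with untreated cultures beside them, and OD600 was read at 0 h and after 18 h at 30 °C. Any compound under 70% in both replicates was not carried to dose-response.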", "units": {"growth inhibition at single dose": "%"}, "values": [{"smiles": "CNc1cc(C)nc(C2CN(C(=O)c3n[nH]c4ccccc34)CCO2)c1", "note": "(stereo not drawn)", "growth inhibition at single dose": "< 70"}, {"smiles": "CC(=O)NCCCc1ccc(C(=O)COC(=O)c2ccccc2-n2cnnn2)cc1", "growth inhibition at single dose": "< 70"}, {"smiles": "Cc1ccc(-c2cc3nc4c(c(O)n3n2)CCCC4)cc1", "growth inhibition at single dose": "< 70"}, {"smiles": "CNc1snc(C)c1C(=O)OCc1csc(-c2ccccc2)n1", "growth inhibition at single dose": "< 70"}, {"smiles": "FC(F)(F)c1ccc(NCCNc2ccc(C(F)(F)F)cn2)nc1", "growth inhibition at single dose": "< 70"}, {"smiles": "CCOc1cc2c(cc1OCC)C(c1cc(OC)c(O)cc1Cl)NCC2", "note": "(stereo not drawn)", "growth inhibition at single dose": "< 70"}, {"smiles": "CCn1c(O)c(C2NCCc3c2[nH]c2ccc(OC)cc32)c(=O)[nH]c1=O", "note": "(stereo not drawn)", "growth inhibition at single dose": "< 70"}, {"smiles": "CCC(=O)Nc1ccccc1C(=O)Nc1ccccn1", "growth inhibition at single dose": "< 70"}, {"smiles": "CCn1c(CN2CCN(Cc3ccccc3)CC2)nc2cc(NC(=O)c3cccs3)ccc21", "growth inhibition at single dose": "< 70"}, {"smiles": "Cn1c(=O)n(C)c2cc(CNCCNc3ccnc4cc(Cl)ccc34)ccc21", "growth inhibition at single dose": "< 70"}, {"smiles": "COc1ccc(-c2nnc(SC(C)C(=O)NCCC3=CCCCC3)[nH]2)cc1", "note": "(stereo not drawn)", "growth inhibition at single dose": "< 70"}, {"smiles": "CCOC(=O)c1cn(CC)c2cc(N3CCCCC3)c(F)cc2c1=O", "growth inhibition at single dose": "< 70"}, {"smiles": "Cc1ccc(-n2c(C)cc(C(=O)COC(=O)c3ccc[nH]c3=O)c2C)cc1C", "growth inhibition at single dose": "< 70"}, {"smiles": "COc1cccc(-c2nc3c(N4CCCC4)cccc3n2CC2CCCN2)n1", "note": "(stereo not drawn)", "growth inhibition at single dose": "< 70"}, {"smiles": "COCCN(C(=O)Cc1cccs1)C(C(=O)NCc1ccc(OC)cc1)c1ccc(C(C)C)cc1", "note": "(stereo not drawn)", "growth inhibition at single dose": "< 70"}, {"smiles": "Cc1nn2c(=O)c(Cc3ccccc3)c(C)[nH]c2c1-c1ccc(F)cc1", "growth inhibition at single dose": "< 70"}, {"smiles": "Cc1ccc2nc(Cl)c(CNCc3cccs3)cc2c1", "growth inhibition at single dose": "< 70"}, {"smiles": "C/N=c1\\scc(-c2ccco2)n1/N=C/c1sccc1C", "growth inhibition at single dose": "< 70"}, {"smiles": "CC[n+]1ccccc1/C=C/c1ccc(N(C)C)cc1", "growth inhibition at single dose": "< 70"}, {"smiles": "O=C(CCC1CCCCC1)Nc1cccc(-c2nnc(-c3ccco3)o2)c1", "growth inhibition at single dose": "< 70"}, {"smiles": "COc1ccc(-c2csc3ncnc(NCC(=O)NC(C)C)c23)cc1", "growth inhibition at single dose": "< 70"}, {"smiles": "c1coc(CNc2nc(N3CCCCC3)nc3ccccc23)c1", "growth inhibition at single dose": "< 70"}, {"smiles": "CCOC(=O)C1=C(C)N=c2sc(=Cc3ccccc3O)c(=O)n2C1c1ccc(OC)c2ccccc12", "note": "(stereo not drawn)", "growth inhibition at single dose": "< 70"}, {"smiles": "CC(NC(=O)c1cccc(Nc2ncccn2)c1)c1cccc(C(F)(F)F)c1", "note": "(stereo not drawn)", "growth inhibition at single dose": "< 70"}, {"smiles": "c1ccc(SCc2ccc(-c3nc4ccccc4s3)cc2)nc1", "growth inhibition at single dose": "< 70"}, {"smiles": "Cc1ccccc1NC(=O)c1cc2ccccc2c(CN2CCC3(CC2)OCCO3)c1O", "growth inhibition at single dose": "< 70"}, {"smiles": "O=C(c1[nH]nc2c1CCCC2)N1CCN(Cc2ccc3c(c2)OCO3)CC1", "growth inhibition at single dose": "< 70"}, {"smiles": "COc1ccc(C(=N)N)cc1-c1cn(-c2ccc(C(=N)N)cc2)nn1", "growth inhibition at single dose": "< 70"}, {"smiles": "N=c1n(CCN2CCCCC2)c2ccccc2n1CC(=O)c1ccc(Cl)c(Cl)c1", "growth inhibition at single dose": "< 70"}, {"smiles": "COc1ccc(CCN2CCC(CN(C)Cc3cnn(-c4ccccc4)c3)CC2)cc1", "growth inhibition at single dose": "< 70"}, {"smiles": "O=C(Nc1ccc(-c2nc3cc(NC(=O)c4ccc(Cl)cc4)ccc3[nH]2)cc1)c1ccc(Cl)cc1", "growth inhibition at single dose": "< 70"}, {"smiles": "Cc1nc2ccccc2c(O)c1CC=C(Cl)Cl", "growth inhibition at single dose": "< 70"}, {"smiles": "CNc1snc(C)c1C(=O)NCc1ccc(COCC(F)(F)F)cc1", "growth inhibition at single dose": "< 70"}, {"smiles": "Clc1cccc(CO[C@H]2CCc3ccccc3[C@@H]2n2ccnn2)c1", "growth inhibition at single dose": "< 70"}, {"smiles": "Cc1nn(Cc2ccccc2)c2sc(C(=O)Nc3nc4ccccc4[nH]3)cc12", "growth inhibition at single dose": "< 70"}, {"smiles": "Cc1sc(NC(=O)c2ccccc2)c(C(c2cccs2)N2CCN(c3ccccc3)CC2)c1C", "note": "(stereo not drawn)", "growth inhibition at single dose": "< 70"}, {"smiles": "O=C(Nc1nc2cc3c(cc2s1)OCCO3)c1cccc2c[nH]nc12", "growth inhibition at single dose": "< 70"}, {"smiles": "CC(C)c1ncc(-c2ccncc2)c([C@H]2CC[C@H](CNC(=O)c3cccnc3)CC2)n1", "growth inhibition at single dose": "< 70"}, {"smiles": "CCOC(=O)C1=C(c2ccccc2)N=c2sc(=Cc3cc(C)n(-c4ccc(F)cc4)c3C)c(=O)n2C1c1cccc(OC)c1OC", "note": "(stereo not drawn)", "growth inhibition at single dose": "< 70"}, {"smiles": "COc1cccc(OCC(=O)c2ccc(Br)cc2)c1", "growth inhibition at single dose": "< 70"}, {"smiles": "CN(C)CCNc1nc(-c2ccco2)c2c(c1C#N)CCCC2", "growth inhibition at single dose": "< 70"}, {"smiles": "Clc1ccc(-n2cc(COc3ccnc4ccccc34)nn2)cc1", "growth inhibition at single dose": "< 70"}, {"smiles": "Oc1c2c(nc3cc(-c4ccccc4)nn13)CCCC2", "growth inhibition at single dose": "< 70"}, {"smiles": "COc1ccc(Nc2cc(C)nc(-n3nc(C)cc3C)n2)cc1", "growth inhibition at single dose": "< 70"}, {"smiles": "CC(C)(C)c1ccc(C(=O)Nc2nc3ccccc3s2)cc1", "growth inhibition at single dose": "< 70"}, {"smiles": "CN1CCN(CCCOc2ncc(Nc3ncc(-c4ccc(C(F)(F)F)c(F)c4)nc3C(N)=O)cn2)CC1", "growth inhibition at single dose": "< 70"}, {"smiles": "CCCCCCCCCCCCCCCCOP(=O)([O-])OCC[N+](C)(C)C", "growth inhibition at single dose": "< 70"}, {"smiles": "CCN(CC)c1cc(C)c2cc(NC(=O)c3cccc(OC)c3)ccc2n1", "growth inhibition at single dose": "< 70"}, {"smiles": "CCOc1ccc(Nc2ccnc3cc(Cl)ccc23)cc1", "growth inhibition at single dose": "< 70"}, {"smiles": "COc1ccccc1CNC(=O)CCn1c(=O)[nH]c2ccccc2c1=O", "growth inhibition at single dose": "< 70"}, {"smiles": "CCCCn1c(C(C)Oc2ccc(Cl)cc2Cl)nc2cc(S(N)(=O)=O)ccc21", "note": "(stereo not drawn)", "growth inhibition at single dose": "< 70"}, {"smiles": "O=C(c1ccc(NCCO)cc1)C1C[C@H]1c1ccc(Cl)cc1", "note": "(stereo partly drawn)", "growth inhibition at single dose": "< 70"}, {"smiles": "COc1cc(NS(=O)(=O)c2ccc(C)cc2)c(OC)cc1Cl", "growth inhibition at single dose": "< 70"}, {"smiles": "Cc1ccc2c(CSc3nc(N)c(C#N)cc3C#N)cc(=O)oc2c1C", "growth inhibition at single dose": "< 70"}, {"smiles": "CCCc1c(C)nc2ccccc2c1O", "growth inhibition at single dose": "< 70"}, {"smiles": "CN(Cc1ccc(C(N)=O)cc1)c1ncnc2ccccc12", "growth inhibition at single dose": "< 70"}, {"smiles": "Cc1sc2ncnc(Sc3nc4ccccc4[nH]3)c2c1C", "growth inhibition at single dose": "< 70"}, {"smiles": "O=C(NC1CC1)c1ccc(CSCc2ccccc2Cl)o1", "growth inhibition at single dose": "< 70"}, {"smiles": "O=C(NCc1ccco1)N1CCN(Cc2ccc(Cl)s2)CC1", "growth inhibition at single dose": "< 70"}, {"smiles": "COCC(C)NC(=O)CSc1ncnc2sc(-c3ccccc3)cc12", "note": "(stereo not drawn)", "growth inhibition at single dose": "< 70"}, {"smiles": "O=C(COc1ccc2[nH]c3ccccc3c(=O)c2c1)N1c2ccccc2OCC1c1ccccc1", "note": "(stereo not drawn)", "growth inhibition at single dose": "< 70"}, {"smiles": "COC(=O)c1ccc(CNC(=O)NCCN2c3ccccc3CCC2C)cc1", "note": "(stereo not drawn)", "growth inhibition at single dose": "< 70"}, {"smiles": "CCN(CC)C(=O)N1CCN(C)CC1", "note": "[Diethylcarbamazine]", "growth inhibition at single dose": "< 70"}, {"smiles": "CCN(Cc1ccccc1)C1CCN(Cc2cc(Br)ccc2O)CC1", "growth inhibition at single dose": "< 70"}, {"smiles": "O=C(Nc1ccccc1-c1nc2c(C(=O)O)cccc2o1)c1ccccc1", "growth inhibition at single dose": "< 70"}, {"smiles": "O=c1nc(CCc2ccc3c(c2)OCCO3)[nH]c2ccccc12", "growth inhibition at single dose": "< 70"}, {"smiles": "C[C@H]1c2cccc(O)c2C(=O)C2=C(O)[C@]3(O)C(=O)C(C(N)=O)=C(O)[C@@H](N(C)C)[C@@H]3[C@@H](O)[C@@H]21", "growth inhibition at single dose": "< 70"}, {"smiles": "COc1cc(CN2CCC3(C=Cc4ccccc43)CC2)cc2c1OCO2", "growth inhibition at single dose": "< 70"}, {"smiles": "CN(C)c1ccc(CNc2ncnc3ccccc23)cc1", "growth inhibition at single dose": "< 70"}, {"smiles": "N#CCc1c(C#N)c(N)nc(Nc2ccc(F)cc2F)c1C#N", "growth inhibition at single dose": "< 70"}, {"smiles": "Cc1cc(C(=O)Nc2nc3ccccc3s2)c(C)n1C(C)C", "growth inhibition at single dose": "< 70"}, {"smiles": "CN1CCN(c2cc(-c3ccc(F)cc3)nc(-c3ccncc3)n2)CC1", "growth inhibition at single dose": "< 70"}, {"smiles": "CCCCN1C(=O)C(=O)N(CC(=O)Nc2sc(Cc3ccc4c(c3)OCO4)c(C)c2C(=O)OCC)C1=O", "growth inhibition at single dose": "< 70"}, {"smiles": "CCCN(CCC)CCCNC(=O)c1cc2c(-c3ccc(OC)c(OC)c3)nn(C)c2s1", "growth inhibition at single dose": "< 70"}, {"smiles": "O=C(NCc1ccccc1)/C(=C/c1ccc(OCc2ccccc2)cc1)c1nc2ccccc2[nH]1", "growth inhibition at single dose": "< 70"}, {"smiles": "COCCNC(=O)C1CCN(C(C(=O)c2c[nH]c3ccccc23)c2ccccc2)CC1", "note": "(stereo not drawn)", "growth inhibition at single dose": "< 70"}, {"smiles": "C[n+]1c2ccccc2nc2ccc(NCCO)cc21", "growth inhibition at single dose": "< 70"}, {"smiles": "CCOc1ccccc1CN1CCc2nc3cc(C(C)(C)C)nn3c(O)c2C1", "growth inhibition at single dose": "< 70"}, {"smiles": "COc1ccc(C)c2sc(N(Cc3cccnc3)C(=O)c3ccc(C#N)cc3)nc12", "growth inhibition at single dose": "< 70"}, {"smiles": "COc1ccc(-c2csc(N/C=C3/C(=O)NC(=O)c4ccccc43)n2)cc1OC", "growth inhibition at single dose": "< 70"}, {"smiles": "CCCc1ccc(-c2nc(-c3ccccc3)no2)cc1", "growth inhibition at single dose": "< 70"}, {"smiles": "c1ccc(Oc2ccc(-c3cc(N4CCNCC4)[nH]n3)cc2)cc1", "growth inhibition at single dose": "< 70"}, {"smiles": "Cc1ccc(-c2cc3c(SCC(=O)Nc4cc(C(F)(F)F)ccc4Cl)nccn3n2)cc1", "growth inhibition at single dose": "< 70"}, {"smiles": "COCCn1c(C)nc2ccccc2c1=O", "growth inhibition at single dose": "< 70"}, {"smiles": "COc1cccc(-c2cc3c(Nc4cccnc4)nccc3[nH]2)c1", "growth inhibition at single dose": "< 70"}, {"smiles": "COc1ccc(-c2nc(N3CCN(C(=O)C4CCCCC4)CC3)c3c4c(sc3n2)CCCC4)cc1", "growth inhibition at single dose": "< 70"}, {"smiles": "Cc1cc(=O)oc2c1ccc1oc(C(=O)c3ccccc3)c(C)c12", "growth inhibition at single dose": "< 70"}, {"smiles": "N#Cc1nc(-c2ccccc2F)oc1NCCc1ccccc1", "growth inhibition at single dose": "< 70"}, {"smiles": "Cc1ccc(S(=O)(=O)N2c3ccc(S(N)(=O)=O)cc3CC2C)cc1", "note": "(stereo not drawn)", "growth inhibition at single dose": "< 70"}, {"smiles": "CN(C)S(=O)(=O)c1ccc2oc(SCC(=O)Nc3cc(C(C)(C)C)no3)nc2c1", "growth inhibition at single dose": "< 70"}, {"smiles": "COc1cncc(-c2cncc(N3CCN(c4ccncc4)CC3)n2)c1", "growth inhibition at single dose": "< 70"}, {"smiles": "Cc1ccc(S(=O)(=O)N2CCN(C(=O)c3cc(-c4ccccc4)[nH]n3)CC2)cc1", "growth inhibition at single dose": "< 70"}, {"smiles": "Cc1ccc(NS(=O)(=O)c2ccc(C(=O)Nc3ncccc3O)cc2)cc1", "growth inhibition at single dose": "< 70"}]}]}
